Reference: BindingDB's records for doi:10.1111/j.1432-1033.1992.tb17043.x (Universit&Eacute, 1992)
pKi: −log10 of the molar value. Non-standard residues stand in square brackets, D forms with d. Residues, ends and D or L forms follow the SMILES beside them. ξ: configuration not given here. Ile(3ξ) = CCC(C)[C@H](N)C(=O)O

The compounds below were run against T1, Pituitary adenylate cyclase-activating polypeptide (Homo sapiens, UniProt P18509).
T1 sequence (P18509 whole entry): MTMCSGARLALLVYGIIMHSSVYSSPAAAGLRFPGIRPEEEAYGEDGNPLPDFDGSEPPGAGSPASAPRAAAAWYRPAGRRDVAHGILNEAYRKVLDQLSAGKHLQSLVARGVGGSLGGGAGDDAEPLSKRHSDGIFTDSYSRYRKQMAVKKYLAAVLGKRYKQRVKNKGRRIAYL

Compound | pKi
CCC(C)[C@H](NC(=O)CNC(=O)[C@H](CC(=O)O)NC(=O)[C@@H](Cc1ccccc1)NC(=O)[C@@H](N)Cc1cnc[nH]1)C(=O)N[C@@H](Cc1ccccc1)C(=O)N[C@H](C(=O)N[C@@H](CC(=O)O)C(=O)N[C@@H](CO)C(=O)N[C@@H](Cc1ccc(O)cc1)C(=O)N[C@@H](CO)C(=O)N[C@@H](CCCN=C(N)N)C(=O)N[C@@H](Cc1ccc(O)cc1)C(=O)N[C@@H](CCCN=C(N)N)C(=O)N[C@@H](CCCCN)C(=O)N[C@@H](CCC(N)=O)C(=O)N[C@@H](CCSC)C(=O)N[C@@H](C)C(=O)N[C@H](C(=O)N[C@@H](CCCCN)C(=O)N[C@@H](CCCCN)C(=O)N[C@@H](Cc1ccc(O)cc1)C(=O)N[C@@H](CC(C)C)C(=O)N[C@@H](C)C(=O)N[C@@H](C)C(=O)N[C@H](C(=O)N[C@@H](CC(C)C)C(N)=O)C(C)C)C(C)C)[C@@H](C)O (stereo partly drawn) [[D-Phe2]PACAP-27] | 6.52
CCC(C)[C@H](NC(=O)CNC(=O)[C@H](CC(=O)O)NC(=O)[C@@H](Cc1ccccc1)NC(=O)[C@@H](N)Cc1cnc[nH]1)C(=O)N[C@@H](Cc1ccccc1)C(=O)N[C@H](C(=O)N[C@@H](CC(=O)O)C(=O)N[C@@H](CO)C(=O)N[C@@H](Cc1ccc(O)cc1)C(=O)N[C@@H](CO)C(=O)N[C@@H](CCCN=C(N)N)C(=O)N[C@@H](Cc1ccc(O)cc1)C(=O)N[C@@H](CCCN=C(N)N)C(=O)N[C@@H](CCCCN)C(=O)N[C@@H](CCC(N)=O)C(=O)N[C@@H](CCSC)C(=O)N[C@@H](C)C(=O)N[C@H](C(=O)N[C@@H](CCCCN)C(=O)N[C@@H](CCCCN)C(=O)N[C@@H](Cc1ccc(O)cc1)C(=O)N[C@@H](CC(C)C)C(=O)N[C@@H](C)C(=O)N[C@@H](C)C(=O)N[C@H](C(=O)N[C@@H](CC(C)C)C(=O)NCC(=O)N[C@@H](CCCCN)C(=O)N[C@@H](CCCN=C(N)N)C(=O)N[C@@H](Cc1ccc(O)cc1)C(=O)N[C@@H](CCCCN)C(=O)N[C@@H](CCC(N)=O)C(=O)N[C@@H](CCCN=C(N)N)C(=O)N[C@H](C(=O)N[C@@H](CCCCN)C(=O)N[C@@H](CC(N)=O)C(=O)N[C@@H](CCCCN)C(N)=O)C(C)C)C(C)C)C(C)C)[C@@H](C)O (stereo partly drawn) [[D-Phe2]PACAP-38] (H-H[dF]DG[Ile(3ξ)]FTDSYSRYRKQMAVKKYLAAVLGKRYKQRVKNK-NH2) | 8.00
CCC(C)[C@H](NC(=O)CNC(=O)[C@H](CC(=O)O)NC(=O)[C@H](Cc1ccccc1)NC(=O)[C@@H](N)Cc1cnc[nH]1)C(=O)N[C@@H](Cc1ccccc1)C(=O)N[C@H](C(=O)N[C@@H](CC(=O)O)C(=O)N[C@@H](CO)C(=O)N[C@@H](Cc1ccc(O)cc1)C(=O)N[C@@H](CO)C(=O)N[C@@H](CCCN=C(N)N)C(=O)N[C@@H](Cc1ccc(O)cc1)C(=O)N[C@@H](CCCN=C(N)N)C(=O)N[C@@H](CCCCN)C(=O)N[C@@H](CCC(N)=O)C(=O)N[C@@H](CCSC)C(=O)N[C@@H](C)C(=O)N[C@H](C(=O)N[C@@H](CCCCN)C(=O)N[C@@H](CCCCN)C(=O)N[C@@H](Cc1ccc(O)cc1)C(=O)N[C@@H](CC(C)C)C(=O)N[C@@H](C)C(=O)N[C@@H](C)C(=O)N[C@H](C(=O)N[C@@H](CC(C)C)C(N)=O)C(C)C)C(C)C)[C@@H](C)O (some centres not stated) [[Phe2]PACAP(1-27)] | 6.70
CCC(C)[C@H](NC(=O)CNC(=O)[C@H](CC(=O)O)NC(=O)[C@H](Cc1ccccc1)NC(=O)[C@@H](N)Cc1cnc[nH]1)C(=O)N[C@@H](Cc1ccccc1)C(=O)N[C@H](C(=O)N[C@@H](CC(=O)O)C(=O)N[C@@H](CO)C(=O)N[C@@H](Cc1ccc(O)cc1)C(=O)N[C@@H](CO)C(=O)N[C@@H](CCCN=C(N)N)C(=O)N[C@@H](Cc1ccc(O)cc1)C(=O)N[C@@H](CCCN=C(N)N)C(=O)N[C@@H](CCCCN)C(=O)N[C@@H](CCC(N)=O)C(=O)N[C@@H](CCSC)C(=O)N[C@@H](C)C(=O)N[C@H](C(=O)N[C@@H](CCCCN)C(=O)N[C@@H](CCCCN)C(=O)N[C@@H](Cc1ccc(O)cc1)C(=O)N[C@@H](CC(C)C)C(=O)N[C@@H](C)C(=O)N[C@@H](C)C(=O)N[C@H](C(=O)N[C@@H](CC(C)C)C(=O)NCC(=O)N[C@@H](CCCCN)C(=O)N[C@@H](CCCN=C(N)N)C(=O)N[C@@H](Cc1ccc(O)cc1)C(=O)N[C@@H](CCCCN)C(=O)N[C@@H](CCC(N)=O)C(=O)N[C@@H](CCCN=C(N)N)C(=O)N[C@H](C(=O)N[C@@H](CCCCN)C(=O)N[C@@H](CC(N)=O)C(=O)N[C@@H](CCCCN)C(N)=O)C(C)C)C(C)C)C(C)C)[C@@H](C)O (some centres not stated) [[Phe2]PACAP(1-38)] (H-HFDG[Ile(3ξ)]FTDSYSRYRKQMAVKKYLAAVLGKRYKQRVKNK-NH2) | 8.00
H-FTDSYSRYRKQMAVKKYLAAVL-NH2 [PACAP(5-27)] | 7.22
H-TDSYSRYRKQMAVKKYLAAVL-NH2 [PACAP(6-27)] | 6.70
H-TDSYSRYRKQMAVKKYLAAVLGKRYKQRVKNK-NH2 [PACAP(7-38)] | 8.10
